US9796711B2, “Substituted pyrazolo[3,4-b]pyridin-6-carboxylic acids and method of use” (AbbVie S.àr.l., priority 2015, dated 2017)
pEC50: −log10 of the molar value.

Key:
[1] = biological target: T1, ΔF508-CFTR (Homo sapiens, UniProt P13569, DEL508-508); assay: CFTR cell surface levels using HRP-tagged ΔF508-CFTR expressing CFBE cells, intrinsic corrector capacity; type: cell-based; details: for pEC50: read-out: EC50
T1 construct: host or cells: CFBE41o-, doxycycline-inducible
Summary of the method: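 Here the cells express ΔF508-CFTR with horseradish peroxidase inserted in extracellular loop 4, so only rescued channel at the surface gives luminescent signal. Compounds act on their own, 20 h at the reduced temperature of 33 °C; values are percent activity relative to DMSO and a 3 μM corrector.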

[2] = biological target: T1, ΔF508-CFTR; assay: CFTR cell surface levels using HRP-tagged ΔF508-CFTR expressing CFBE cells, in the presence of a co-corrector; type: cell-based; details: HRP-tagged ΔF508-CFTR expressing CFBE cells, in the presence of 3 μM co-corrector; for pEC50: read-out: EC50
Summary of the method: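 Cells were seeded with 0.5 μg/mL doxycycline and held 68 h at 37 °C. Test compounds plus 3 μM co-corrector (final 0.1% DMSO) were then added for 20 h at 33 °C. Washed cells received HRP substrate, and luminescence was normalized between DMSO and 3 μM co-corrector controls.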

[3] = HRP-tagged ΔF508-CFTR expressing CFBE cells, intrinsic corrector capacity (no co-corrector), 33° C., 20 hours
[4] = HRP-tagged ΔF508-CFTR CFBE41o- cells, compounds alone (intrinsic corrector capacity), 20 hours at 33° C., positive control 3 μM corrector
[5] = HRP-tagged ΔF508-CFTR CFBE41o- cells, compounds alone (intrinsic corrector capacity), 20 hours at 33° C.

T1 sequence (P13569 with tags, fused parts or gaps DEL508-508): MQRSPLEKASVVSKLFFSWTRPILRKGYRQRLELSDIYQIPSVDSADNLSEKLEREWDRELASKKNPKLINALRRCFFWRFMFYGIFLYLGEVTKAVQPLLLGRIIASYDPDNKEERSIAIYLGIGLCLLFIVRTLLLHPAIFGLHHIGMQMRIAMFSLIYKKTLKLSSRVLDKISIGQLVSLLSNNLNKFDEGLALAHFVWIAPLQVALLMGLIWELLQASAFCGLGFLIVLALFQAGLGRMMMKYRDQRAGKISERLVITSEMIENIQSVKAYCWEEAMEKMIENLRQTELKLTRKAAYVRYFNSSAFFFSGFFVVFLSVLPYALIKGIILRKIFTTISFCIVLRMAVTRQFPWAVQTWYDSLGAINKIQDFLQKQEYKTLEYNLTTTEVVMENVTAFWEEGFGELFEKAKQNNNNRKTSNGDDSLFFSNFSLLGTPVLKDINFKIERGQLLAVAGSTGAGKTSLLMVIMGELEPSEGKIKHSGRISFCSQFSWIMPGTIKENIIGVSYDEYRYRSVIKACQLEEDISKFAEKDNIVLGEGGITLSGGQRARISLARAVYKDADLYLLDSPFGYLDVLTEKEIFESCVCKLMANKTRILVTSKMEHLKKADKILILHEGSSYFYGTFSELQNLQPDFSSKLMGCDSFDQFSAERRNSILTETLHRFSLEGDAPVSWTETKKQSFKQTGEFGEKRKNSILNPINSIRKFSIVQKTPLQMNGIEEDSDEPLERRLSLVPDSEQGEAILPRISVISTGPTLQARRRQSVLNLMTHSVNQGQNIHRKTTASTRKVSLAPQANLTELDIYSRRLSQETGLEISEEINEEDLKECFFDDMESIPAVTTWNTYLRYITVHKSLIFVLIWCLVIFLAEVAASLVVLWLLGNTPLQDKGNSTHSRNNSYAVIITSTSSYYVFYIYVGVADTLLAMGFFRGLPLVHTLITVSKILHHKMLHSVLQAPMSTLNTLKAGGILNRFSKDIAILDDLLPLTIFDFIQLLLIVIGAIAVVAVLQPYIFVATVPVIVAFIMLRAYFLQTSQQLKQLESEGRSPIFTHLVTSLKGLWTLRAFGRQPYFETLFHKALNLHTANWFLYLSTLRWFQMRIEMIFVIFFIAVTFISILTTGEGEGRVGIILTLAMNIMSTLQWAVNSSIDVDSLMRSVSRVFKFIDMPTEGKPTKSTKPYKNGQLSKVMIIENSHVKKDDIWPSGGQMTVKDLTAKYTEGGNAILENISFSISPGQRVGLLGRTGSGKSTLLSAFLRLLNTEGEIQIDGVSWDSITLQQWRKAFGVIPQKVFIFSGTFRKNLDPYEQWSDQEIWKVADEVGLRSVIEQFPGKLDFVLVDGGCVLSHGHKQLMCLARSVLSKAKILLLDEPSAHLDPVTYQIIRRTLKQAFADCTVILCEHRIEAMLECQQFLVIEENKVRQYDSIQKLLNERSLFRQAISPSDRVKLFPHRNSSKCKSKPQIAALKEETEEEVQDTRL

| Structure (SMILES) | % Activation [1, 3] | pEC50 [1, 3] | % Activation [2] | pEC50 [2] | % Activation [1, 4] | pEC50 [1, 5] |
| --- | --- | --- | --- | --- | --- | --- |
| O=C(O)c1cc(OC[C@@H](F)C2CCOCC2)c2c(C3CCC3)nn(-c3ccccc3)c2n1 [compound 415, 3-cyclobutyl-4-[(2S)-2-fluoro-2-(oxan-4-yl)ethoxy]-1-phenyl-1H-pyrazolo[3,4-b]pyridine-6-carboxylic acid] | 168.85% | 6.31 | 334.35% | 6.60 |  |  |
| CC(C)c1nn(C2CCN(CC#N)CC2)c2nc(C(=O)O)cc(-c3ccc(N4CCOCC4)cc3)c12 [compound 95, 1-[1-(cyanomethyl)piperidin-4-yl]-4-[4-(morpholin-4-yl)phenyl]-3-(propan-2-yl)-1H-pyrazolo[3,4-b]pyridine-6-carboxylic acid] |  |  | 145.4% | 5.48 | 16.66% | < 5.00 |
| O=C(O)c1cc(N2CCC(CN3CCC4(COC4)C3)CC2)c2c(C3CCC3)nn(-c3ccccc3)c2n1 [compound 842, 3-cyclobutyl-4-{4-[(2-oxa-6-azaspiro[3.4]octan-6-yl)methyl]piperidin-1-yl}-1-phenyl-1H-pyrazolo[3,4-b]pyridine-6-carboxylic acid] | 162.5% | 6.20 | 370% | 6.23 |  |  |
| O=C(O)c1cc(N2CCC(CN3CC(F)C3)CC2)c2c(C3CCC3)nn(-c3ccccc3)c2n1 [compound 827, 3-cyclobutyl-4-{4-[(3-fluoroazetidin-1-yl)methyl]piperidin-1-yl}-1-phenyl-1H-pyrazolo[3,4-b]pyridine-6-carboxylic acid] | 265.4% | 6.59 | 453.25% | 7.03 |  |  |
| O=C(O)c1cc(OCCC2CCCCC2)c2c(C3CCC3)nn(-c3ccccc3)c2n1 [compound 633, 3-cyclobutyl-4-(2-cyclohexylethoxy)-1-phenyl-1H-pyrazolo[3,4-b]pyridine-6-carboxylic acid] | 66.87% | 6.18 | 279.27% | 6.15 |  |  |
| O=C(O)c1cc(N2CCC3(CC2)CC(O)C3)c2c(C3CCC3)nn(-c3ccccc3)c2n1 [compound 543, 3-cyclobutyl-4-(2-hydroxy-7-azaspiro[3.5]nonan-7-yl)-1-phenyl-1H-pyrazolo[3,4-b]pyridine-6-carboxylic acid] | 129.15% | 6.52 | 304.9% | 6.62 |  |  |
| Cc1nn(C2CCCC2)c2nc(C(=O)O)cc(-c3ccc(N4CCOCC4)nc3)c12 [compound 106, 1-cyclopentyl-3-methyl-4[6-(morpholin-4-yl)pyridin-3-yl]-1H-pyrazolo[3,4-b]pyridine-6-carboxylic acid] |  |  | 237.45% | 5.58 | 73% | 5.48 |
| Cc1nn(-c2ccccc2)c2nc(C(=O)O)cc(O[C@H]3CCN(C)C3)c12 [compound 337, 3-methyl-4-{[(3S)-1-methylpyrrolidin-3-yl]oxy}-1-phenyl-1H-pyrazolo[3,4-b]pyridine-6-carboxylic acid] |  |  | 139.85% | 5.38 | 15.48% | 5.12 |
| Cc1nn(-c2ccccc2)c2nc(C(=O)O)cc(O[C@@H]3CCCN(C)C3)c12 [compound 343, 3-methyl-4-{[(3R)-1-methylpiperidin-3-yl]oxy}-1-phenyl-1H-pyrazolo[3,4-b]pyridine-6-carboxylic acid] |  |  | 104.7% | 5.12 | 11.085% | 5.12 |
| CC(C)c1nn(-c2cccc(F)c2)c2nc(C(=O)O)cc(-c3cnc(N(C)C4CCOCC4)nc3)c12 [compound 316, 1-(3-fluorophenyl)-4-{2-[methyl(oxan-4-yl)amino]pyrimidin-5-yl}-3-(propan-2-yl)-1H-pyrazolo[3,4-b]pyridine-6-carboxylic acid] |  |  | 435.6% | 6.51 | 218.87% | 6.25 |
